From paper PMC4524497 (Bioorganic & medicinal chemistry, 2015)
Each block holds one molecule with its values, some of them ahead of it.

Key:
σ2 receptor = target: T1, σ2 receptor (Rattus norvegicus, UniProt Q5U3Y7); assay: σ2 receptor binding assay with [^3H]DTG in the presence of; conditions: for Ki: Ki-σ2, [^3H]DTG + 1 μM (+)-pentazocine, rat liver membranes, mean ± SEM
T1 sequence (Q5U3Y7 1-176): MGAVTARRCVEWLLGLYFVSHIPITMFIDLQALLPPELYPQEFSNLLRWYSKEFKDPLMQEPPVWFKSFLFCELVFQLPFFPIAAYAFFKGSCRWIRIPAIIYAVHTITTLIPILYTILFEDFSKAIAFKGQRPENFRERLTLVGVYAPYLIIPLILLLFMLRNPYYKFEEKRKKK

human VAChT = target: T2, human VAChT (Homo sapiens, UniProt Q16572); assay: VAChT competitive binding assay with [^3H]vesamicol
T2 sequence (Q16572 1-532): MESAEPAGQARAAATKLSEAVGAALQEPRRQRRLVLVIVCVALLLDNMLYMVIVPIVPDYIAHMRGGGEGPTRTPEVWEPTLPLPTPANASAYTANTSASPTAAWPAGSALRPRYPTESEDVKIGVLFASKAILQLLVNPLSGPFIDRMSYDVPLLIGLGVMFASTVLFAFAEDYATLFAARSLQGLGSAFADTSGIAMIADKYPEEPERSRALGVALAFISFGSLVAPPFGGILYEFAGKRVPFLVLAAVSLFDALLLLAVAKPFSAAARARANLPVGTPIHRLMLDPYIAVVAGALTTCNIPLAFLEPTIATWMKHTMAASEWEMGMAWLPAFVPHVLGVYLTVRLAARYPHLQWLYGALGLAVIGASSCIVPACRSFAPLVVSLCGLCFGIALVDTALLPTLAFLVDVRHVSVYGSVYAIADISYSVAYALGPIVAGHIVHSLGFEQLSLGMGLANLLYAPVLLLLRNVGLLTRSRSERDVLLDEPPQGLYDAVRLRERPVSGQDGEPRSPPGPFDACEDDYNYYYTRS

[1] = post-injection, human brain SPECT; cited from earlier work
VAChT = conditions: brain of both NHP and human subjects; cited from earlier work

Ki (σ2 receptor): > 10 µM
Compound: O=C(c1ccc(F)cc1)C1CCN(C2Cc3c(cccc3OCCF)CC2O)CC1 (racemic) [Compound 18a, (1-(8-(2-Fluoroethoxy)-3-hydroxy-1,2,3,4-tetrahydronaphthalen-2-yl)piperidin-4-yl)(4-fluorophenyl)methanone]

selectivity for VAChT versus σ receptors (human VAChT): > 10,000 fold | Ki (σ2 receptor): > 10 µM | VAChT/ σ2 (σ2 receptor; selectivity ratio): >10,000
Compound: O=C(c1ccc(F)cc1)C1CCN(C2Cc3c(cccc3OCCF)CC2O)CC1 (single isomer, unassigned; (-)) [(-)-18a, (-)-(1-(8-(2-Fluoroethoxy)-3-hydroxy-1,2,3,4-tetrahydronaphthalen-2-yl)piperidin-4-yl)(4-fluorophen-yl)-methanone]

Compound: OC1Cc2cccc([123I])c2CC1N1CCC(c2ccccc2)CC1 (single isomer, unassigned; (-)) [[^123I]IBVM, (-)-5-[^123I]iodo-benzovesamicol]
time required for quantification of peak uptake in the target regions [1]: at least 6 hr

Compound: O[C@@H]1Cc2cccc(OCC[18F])c2C[C@H]1N1CCC(c2ccccc2)CC1 [[^18F]FEOBV, [^18F]fluoroethoxy-benzovesamicol]
delayed equilibrium of brain kinetics (VAChT): > 360 min p.i.
